In PubChem BioAssay (NCI):
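In this assay, cells in 96-well plates receive the compound at five concentrations for 48 hours. Endpoints are linearly interpolated between the surrounding concentrations. TGI is the concentration that stops growth completely.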

Key:
Assay in all cases: NCI-60 cell line screen, 48 h
786-0 renal = tested on: 786-0 renal
A498 renal = tested on: A498 renal
A549 NSCLC = tested on: A549 NSCLC
ACHN renal = tested on: ACHN renal
CAKI-1 renal = tested on: CAKI-1 renal
CCRF-CEM leukemia = tested on: CCRF-CEM leukemia
COLO 205 colon = tested on: COLO 205 colon
DMS 114 small cell lung = tested on: DMS 114 small cell lung
DMS 273 small cell lung = tested on: DMS 273 small cell lung
EKVX NSCLC = tested on: EKVX NSCLC
HCC-2998 colon = tested on: HCC-2998 colon
HCT-15 colon = tested on: HCT-15 colon
HOP-62 NSCLC = tested on: HOP-62 NSCLC
HOP-92 NSCLC = tested on: HOP-92 NSCLC
IGROV1 ovarian = tested on: IGROV1 ovarian
K-562 leukemia = tested on: K-562 leukemia
KM20L2 colon = tested on: KM20L2 colon
LXFL 529 NSCLC = tested on: LXFL 529 NSCLC
M14 melanoma = tested on: M14 melanoma
M19-MEL melanoma = tested on: M19-MEL melanoma
MALME-3M melanoma = tested on: MALME-3M melanoma
MOLT-4 leukemia = tested on: MOLT-4 leukemia
NCI-H522 lung = tested on: NCI-H522 lung
OVCAR-3 ovarian = tested on: OVCAR-3 ovarian
OVCAR-8 ovarian = tested on: OVCAR-8 ovarian
RXF-631 renal = tested on: RXF-631 renal
SF-268 CNS = tested on: SF-268 CNS
SF-295 CNS = tested on: SF-295 CNS
SF-539 CNS = tested on: SF-539 CNS
SK-MEL-5 melanoma = tested on: SK-MEL-5 melanoma
SK-OV-3 ovarian = tested on: SK-OV-3 ovarian
SN12C renal = tested on: SN12C renal
SNB-19 CNS = tested on: SNB-19 CNS
SNB-78 CNS = tested on: SNB-78 CNS
SR leukemia = tested on: SR leukemia
SW-620 colon = tested on: SW-620 colon
U251 CNS = tested on: U251 CNS
UO-31 renal = tested on: UO-31 renal
BT-549 breast = tested on: BT-549 breast
DU-145 prostate = tested on: DU-145 prostate
HCT-116 colon = tested on: HCT-116 colon
HL-60(TB) leukemia = tested on: HL-60(TB) leukemia
HS 578T breast = tested on: HS 578T breast
HT29 colon = tested on: HT29 colon
KM12 colon = tested on: KM12 colon
LOX IMVI melanoma = tested on: LOX IMVI melanoma
MCF7 breast = tested on: MCF7 breast
MDA-MB-231 breast = tested on: MDA-MB-231 breast
MDA-MB-435 = tested on: MDA-MB-435
MDA-N = tested on: MDA-N
NCI-H226 lung = tested on: NCI-H226 lung
NCI-H23 lung = tested on: NCI-H23 lung
NCI-H460 lung = tested on: NCI-H460 lung
NCI/ADR-RES ovarian = tested on: NCI/ADR-RES ovarian
OVCAR-4 ovarian = tested on: OVCAR-4 ovarian
OVCAR-5 ovarian = tested on: OVCAR-5 ovarian
PC-3 prostate = tested on: PC-3 prostate
RPMI-8226 leukemia = tested on: RPMI-8226 leukemia
RXF 393 renal = tested on: RXF 393 renal
SK-MEL-2 melanoma = tested on: SK-MEL-2 melanoma
SK-MEL-28 melanoma = tested on: SK-MEL-28 melanoma
SNB-75 CNS = tested on: SNB-75 CNS
T-47D breast = tested on: T-47D breast
TK-10 renal = tested on: TK-10 renal
UACC-257 melanoma = tested on: UACC-257 melanoma
UACC-62 melanoma = tested on: UACC-62 melanoma

Measured: TGI

CC(C)N(C(=O)C12C3C4C1C1C2C3C41C(N)=O)C(C)C (configuration not stated)
> 100 µM: 786-0 renal | A498 renal | A549 NSCLC | ACHN renal | CAKI-1 renal | CCRF-CEM leukemia | COLO 205 colon | DMS 114 small cell lung | DMS 273 small cell lung | EKVX NSCLC | HCC-2998 colon | HCT-15 colon | HOP-62 NSCLC | HOP-92 NSCLC | IGROV1 ovarian | K-562 leukemia | KM20L2 colon | LXFL 529 NSCLC | M14 melanoma | M19-MEL melanoma | MALME-3M melanoma | MOLT-4 leukemia | NCI-H522 lung | OVCAR-3 ovarian | OVCAR-8 ovarian | RXF-631 renal | SF-268 CNS | SF-295 CNS | SF-539 CNS | SK-MEL-5 melanoma | SK-OV-3 ovarian | SN12C renal | SNB-19 CNS | SNB-78 CNS | SR leukemia | SW-620 colon | U251 CNS | UO-31 renal

COc1ccccc1C(=O)NCC1CCCN2CCCCC12 (configuration not stated)
> 100 µM: 786-0 renal | A498 renal | A549 NSCLC | ACHN renal | BT-549 breast | CAKI-1 renal | CCRF-CEM leukemia | COLO 205 colon | DU-145 prostate | EKVX NSCLC | HCC-2998 colon | HCT-116 colon | HCT-15 colon | HL-60(TB) leukemia | HOP-62 NSCLC | HOP-92 NSCLC | HS 578T breast | HT29 colon | IGROV1 ovarian | K-562 leukemia | KM12 colon | LOX IMVI melanoma | M14 melanoma | MALME-3M melanoma | MCF7 breast | MDA-MB-231 breast | MDA-MB-435 | MDA-N | MOLT-4 leukemia | NCI-H226 lung | NCI-H23 lung | NCI-H460 lung | NCI-H522 lung | NCI/ADR-RES ovarian | OVCAR-3 ovarian | OVCAR-4 ovarian | OVCAR-5 ovarian | OVCAR-8 ovarian | PC-3 prostate | RPMI-8226 leukemia | RXF 393 renal | SF-268 CNS | SF-295 CNS | SF-539 CNS | SK-MEL-2 melanoma | SK-MEL-28 melanoma | SK-MEL-5 melanoma | SK-OV-3 ovarian | SN12C renal | SNB-19 CNS | SNB-75 CNS | SR leukemia | SW-620 colon | T-47D breast | TK-10 renal | U251 CNS | UACC-257 melanoma | UACC-62 melanoma | UO-31 renal
